The source of these data is patent publication US20250017859A1, “SOLID DISPERSION, PREPARATION METHOD, AND PHARMACEUTICAL COMPOSITION THEREOF” (Anxo Pharmaceutical Co., Ltd., priority 2023, published 2025).

≈ marks a conversion by molar mass, not a printed value. Where a name gives a salt, the structure may show the parent alone.

The nature of series [1]: Dissolution test 1: solubility by paddle method in pH 6.0+0.01% SDS medium. It is filed as physicochemical. The procedure:
Dissolution tests of experimental group 1 to experimental group 28 produced by spray drying or hot melt extrusion, control group lurasidone HCl and lurasidone are performed to analyze the solubility of each experimental group and control group lurasidone HCl and lurasidone. The dissolution test is performed by paddle method in 500 mL of medium with a pH value of 6.0+0.01% SDS, in which a rotation speed is 100 rpm and a sampling time is 60 minutes.
For comparing the applicability of the carriers suitable for solid dispersion including lurasidone, solid dispersion of comparative group 1 (including crospovidone, a kind of common carrier ingredient) is prepared according to Example 1.2 (HME) and the weight ratio of table 12, and the solubility is tested according the abovementioned method of Example 1.3.1.

Series [2] in a line: Animal test: pharmacokinetics in fasted rats. It is filed as in vivo. Particulars: male, Sprague-Dawley, rat, plasma; rats under fasting state; dose equal to 10 mg/kg lurasidone HCl. The method, then: Lurasidone HCl is used as control group, experimental groups 14-17, 22 and 28 are used as tested group, the pharmacokinetics of each group is evaluated in male Sprague-Dawley rats.
Specifically, control group and experimental groups 14-17, 22 and 28 are administrated to rats under fasting state, respectively, in which the dosage contains 10 mg/kg of lurasidone HCl or the amount of lurasidone equal to 10 mg/kg lurasidone HCl. The number of experimental rats in each group is three, and the sampling time is 0, 0.25, 0.5, 1, 1.5, 2, 4, 6, 8 and 24 hours for analyzing pharmacokinetic results, which are shown in table 15.

The conditions of series [3]: cited from earlier work.

On to `O=C1[C@@H]2[C@H]3CC[C@H](C3)[C@@H]2C(=O)N1C[C@@H]1CCCC[C@H]1CN1CCN(c2nsc3ccccc23)CC1` [Lurasidone HCl], for which the Solubility (as a rule, how much of the substance goes into solution per volume) in series [1] (Table 11, paddle method, 500 mL medium pH 6.0+0.01% SDS, 100 rpm, sampling time 60 minutes, HCl) worked out at 0.46 µg/mL. This compound showed a Solubility in series [1] (Table 12, carrier comparison PVAP vs crospovidone, method of Example 1.3.1, HCl) of 0.46 µg/mL. For the same compound, in series [2], the total exposure AUC(0-inf) – broadly, total exposure, with the tail of the curve extrapolated – was 102 ng·h/mL and the highest concentration (Cmax) (as a rule, the highest concentration seen after dosing) is 32 ng/mL.
On to `O=C1[C@@H]2[C@H]3CC[C@H](C3)[C@@H]2C(=O)N1C[C@@H]1CCCC[C@H]1CN1CCN(c2nsc3ccccc23)CC1` [Lurasidone], for which the solubility in water entry in series [3] is on record as “lower than 0.1 mg/mL”. The Solubility in series [1] (Table 11, paddle method, 500 mL medium pH 6.0+0.01% SDS, 100 rpm, sampling time 60 minutes) was 0.09 µg/mL (≈ 0.183 µM); in series [1] (Table 12, carrier comparison PVAP vs crospovidone, method of Example 1.3.1), 0.09 µg/mL (≈ 0.183 µM).
